Measurements reported in patent publication US8592422B2, “Bicyclic triazole and pyrazole lactams as allosteric modulators of mGluR5 receptors” (Vanderbilt University, priority 2010, dated 2013).
Like-named read-outs stand apart in the source and are kept apart here.

How the values were obtained:
[1] = target: T1, human mGluR5a receptor (Homo sapiens, UniProt P41594); test: Cell-based functional Ca2+ mobilization assay (FDSS), potentiation of glutamate EC20 response; conditions: for EC50: HEK cells transfected with human mGluR5 (H10H or H12H), in presence of EC20 glutamate; for Emax: maximum % effect in concentration-response curve, as percent of response to maximally effective glutamate
T1 construct: cDNA subcloned into pcDNA3.1(-)
In short: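 HEK293A cells stably expressing human mGluR5a (H10H or H12H clones), plated overnight in glutamate-glutamine-free medium, loaded with Ca2+-sensitive dye (e.g. Fluo-4) and read on FDSS.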

T1 sequence (P41594 21-1180 isoform P41594-2 limits assumed): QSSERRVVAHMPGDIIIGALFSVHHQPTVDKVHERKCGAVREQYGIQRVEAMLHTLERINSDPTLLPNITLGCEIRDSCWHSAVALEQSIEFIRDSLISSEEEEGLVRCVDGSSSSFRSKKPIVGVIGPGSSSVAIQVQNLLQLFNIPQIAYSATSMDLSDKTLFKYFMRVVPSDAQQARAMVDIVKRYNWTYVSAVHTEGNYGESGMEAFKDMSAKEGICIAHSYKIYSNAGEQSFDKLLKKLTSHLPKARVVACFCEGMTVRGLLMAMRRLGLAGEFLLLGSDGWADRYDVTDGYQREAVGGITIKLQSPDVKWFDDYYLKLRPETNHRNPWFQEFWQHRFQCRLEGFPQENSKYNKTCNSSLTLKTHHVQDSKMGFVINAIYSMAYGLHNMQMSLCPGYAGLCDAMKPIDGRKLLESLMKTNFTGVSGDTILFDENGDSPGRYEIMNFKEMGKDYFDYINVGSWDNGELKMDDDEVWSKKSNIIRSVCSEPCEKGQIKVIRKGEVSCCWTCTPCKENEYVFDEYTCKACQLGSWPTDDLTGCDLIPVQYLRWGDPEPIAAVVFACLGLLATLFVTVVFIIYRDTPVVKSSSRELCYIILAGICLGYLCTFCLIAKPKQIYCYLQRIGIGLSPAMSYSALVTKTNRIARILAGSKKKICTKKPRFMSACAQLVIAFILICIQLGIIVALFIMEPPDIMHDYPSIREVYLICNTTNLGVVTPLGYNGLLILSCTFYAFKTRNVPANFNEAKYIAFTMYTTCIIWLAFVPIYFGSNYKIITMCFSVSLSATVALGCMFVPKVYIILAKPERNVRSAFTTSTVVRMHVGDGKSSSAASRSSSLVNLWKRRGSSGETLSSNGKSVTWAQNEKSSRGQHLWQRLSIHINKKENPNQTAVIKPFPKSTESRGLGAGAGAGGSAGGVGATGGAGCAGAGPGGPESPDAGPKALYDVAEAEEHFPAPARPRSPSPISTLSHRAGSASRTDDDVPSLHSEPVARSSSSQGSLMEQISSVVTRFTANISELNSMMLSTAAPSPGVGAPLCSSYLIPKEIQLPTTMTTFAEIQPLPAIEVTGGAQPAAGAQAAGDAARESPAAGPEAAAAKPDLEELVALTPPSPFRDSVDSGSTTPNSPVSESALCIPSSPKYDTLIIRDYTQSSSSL

Row | melting point [°C] | EC50 ([1]; read-out: EC50) [nM] | Emax [1] [%] | EC50 ([1]; read-out: pEC50 (converted)) [nM] | Structure (SMILES) | EC50 ([1]; EC50 (nM)) [nM]
1 | 177.1 | 575 | 67 | – | Cc1nc(N2CCn3nc(COc4ccccc4)cc3C2=O)ncc1F [Example 90] | –
2 | 236.2 | > 30200 | 15 | – | Cc1ccc(OCc2cc3n(n2)CCN(c2ccc(F)cc2)C3=O)nc1 [Example 183] | –
3 | 148.9 | 1290 | 71 | – | O=C1c2cc(COc3ccccc3)nn2CCN1c1ccncn1 [Example 80] | –
4 | 176.6 | 224 | 69 | – | CNc1nc(N2CCn3nc(COc4ccccc4)cc3C2=O)ncc1F [Example 279] | –
5 | 165 | 2190 | 60 | – | O=C1c2cc(COc3ncccc3F)nn2CCN1c1ccc(F)cc1 [Example 187] | –
6 | 156 | 170 | 68 | – | Cc1nc(N2C(=O)c3cc(COc4ccccc4)nn3C[C@H]2C)ccc1F [Example 140] | –
7 | 143.2 | 3550 | 56 | – | O=C1c2cc(COc3ccccc3)nn2CCN1c1nccc(N2CCCC2)n1 [Example 309] | –
8 | 117.3 | 190 | 66 | – | COc1ccccc1N1CCn2nc(COc3ccc(F)cc3)cc2C1=O [Example 221] | –
9 | 129.7 | 162 | 84 | – | Cc1cccc(N2CCn3nc(COc4ccccc4)cc3C2=O)n1 [Example 10] | –
10 | 181.3 | 525 | 54 | – | N#Cc1cccc(OCc2cc3n(n2)CCN(c2ccc(F)cn2)C3=O)c1 [Example 233] | –
11 | 131.9 | 219 | 53 | – | COc1cc(N2CCn3nc(COc4ccccc4)cc3C2=O)nc(C)n1 [Example 105] | –
12 | 235.5 | 955 | 67 | – | Cc1cnc(N2CCn3nc(COc4ccccc4)cc3C2=O)cn1 [Example 100] | –
13 | 283.4 | > 10000 | 67 | – | Cc1ncc(N2CCn3nc(COc4ccccc4)cc3C2=O)cn1 [Example 33] | –
14 | 132.1 | 2820 | 78 | 1660 | O=C1c2cc(COc3ccccc3)nn2CCN1CC(F)(F)F [Example 24] | –
15 | 99.5 | 71 | 68 | – | CC1CN(c2ccc(F)cc2)C(=O)c2cc(COc3ccccc3)nn21 (racemic) [Example 19] | –
16 | 99.3 | 130 | 62 | – | Cc1cc(N2C(=O)c3cc(COc4ccccc4)nn3C[C@H]2C)ncc1F [Example 155] | –
17 | 127.5 | 324 | 68 | – | O=C1c2cc(COc3ccccc3)nn2CCN1c1ncccc1Cl [Example 68] | –
18 | 128.1 | 170 | 64 | – | CC1CN(c2cccc(F)c2)C(=O)c2cc(COc3ccc(F)cc3)nn21 (racemic) [Example 235] | –
19 | 143.9 | 407 | 69 | – | COc1cc(N2CCn3nc(COc4ccccn4)cc3C2=O)ccc1F [Example 204] | –
20 | > 300 | 151 | 60 | – | O=C1c2cc(COc3ccc(F)cc3)nn2CCN1c1ccc(F)cn1 [Example 179] | –
21 | 87.4 | 63 | 70 | – | Cc1nc(N2CC(C)n3nc(COc4ccccc4)cc3C2=O)ccc1F (stereo not shown) [Example 134] | –

Row | melting point [°C] | EC50 ([1]; read-out: EC50) [nM] | Emax [1] [%] | EC50 ([1]; read-out: pEC50 (converted)) [nM] | Structure (SMILES) | EC50 ([1]; EC50 (nM)) [nM]
22 | 168.3 | 4900 | 45 | – | Cc1cnccc1OCc1cc2n(n1)CCN(c1ccc(F)cc1)C2=O [Example 189] | –
23 | > 300 | > 10000 | 40 | – | COc1ccnc(OCc2cc3n(n2)CCN(c2ccc(F)cc2)C3=O)c1 [Example 195] | –
24 | 76.7 | 363 | 74 | – | CC(C)CCc1cccc(N2CCn3nc(COc4ccccc4)cc3C2=O)n1 [Example 65] | –
25 | 70.2 | > 30200 | 21 | – | Cc1cccc(OCc2cc3n(n2)C(C)CN(c2ccc(F)cc2)C3=O)c1 (stereo not shown) [Example 242] | –
26 | 123.5 | 151 | 64 | – | Cc1nc(N2CC(C)n3nc(COc4ccc(F)cc4)cc3C2=O)ccc1F (racemic) [Example 236] | –
27 | 180.2 | 174 | 60 | – | O=C1c2cc(COc3ccccc3)nn2CCN1CC1CC1(F)F (stereo not shown) [Example 28] | –
28 | 240 | > 10000 | 58 | – | O=C1c2cc(COc3ccccc3)nn2CCN1c1cncnc1 [Example 31] | –
29 | 155.3 | 1200 | 74 | – | Cc1cncc(N2CCn3nc(COc4ccccc4)cc3C2=O)c1 [Example 22] | –
30 | 110.7 | > 10000 | 51 | – | O=C1c2cc(COc3cncc(F)c3)nn2CCN1CC1CC1 [Example 171] | –
31 | 131.3 | 490 | 72 | – | Cc1ccnc(N2CCn3nc(COc4ccccc4)cc3C2=O)c1 [Example 17] | –
32 | 271.3 | 1480 | 72 | – | O=C1c2cc(COc3ccccc3)nn2CCN1c1ccncc1 [Example 14] | –
33 | 164.2 | 141 | 69 | – | CC1CN(c2ccc(F)cc2)C(=O)c2cc(COc3ccc(F)cc3)nn21 (racemic) [Example 234] | –
34 | 239.4 | > 10000 | 52 | – | O=C1c2cc(COc3ccc(F)cn3)nn2CCN1c1ccc(F)cc1 [Example 181] | –
35 | 110.2 | > 30200 | 21 | – | CC1CN(c2ccc(F)cc2)C(=O)c2cc(COc3cccc(C#N)c3)nn21 (stereo not shown) [Example 241] | –
36 | > 300 | 1860 | 53 | – | CC(C)N1CCn2nc(COc3ccccc3)cc2C1=O [Example 25] | –
37 | > 300 | 470 | 69 | – | Cc1ccc(N2CCn3nc(COc4ccccn4)cc3C2=O)cc1 [Example 218] | –
38 | 183.7 | 646 | 67 | – | COc1cc(C)nc(N2CCn3nc(COc4ccccc4)cc3C2=O)n1 [Example 99] | –
39 | 145.8 | 93 | 65 | – | COc1ccccc1N1CCn2nc(COc3ccccc3)cc2C1=O [Example 47] | –
40 | 144.5 | 490 | 69 | – | COc1ccnc(N2CCn3nc(COc4ccccc4)cc3C2=O)n1 [Example 78] | –
41 | 169.6 | 347 | 63 | – | COc1cnc(N2CCn3nc(COc4ccccc4)cc3C2=O)nc1OC [Example 107] | –

Row | Structure (SMILES) | melting point [°C] | EC50 ([1]; read-out: EC50) [nM] | Emax [1] [%] | EC50 ([1]; read-out: pEC50 (converted)) [nM] | EC50 ([1]; EC50 (nM)) [nM]
42 | O=C1c2cc(COc3ccccc3)nn2CCN1c1ccccc1F [Example 9] | 154.7 | – | 82 | – | 162
43 | O=C1c2cc(COc3ccccc3)nn2CCN1c1ncc(F)cn1 [Example 126] | 161.3 | – | 71 | – | 780
